“And” between values parts separate entries of the source, which are not always exact repeats. Identical values can stand only once.

This test deals with A/Georgia/20/2006 (H1N1) H275Y. The test is classed as cell-based, influenza A virus.

For the compound `C[n+]1ccc(C(=O)NCc2ccccc2)cc1` [enisamium, N-methyl-4-benzylcarbamidopyridinium], the 90% effect concentration (EC90) (as a rule, the concentration needed for an effect of 90%) was 144 µM and 286 µM.

The record behind these values is paper PMC6961345 (Antiviral Chemistry & Chemotherapy, 2018).
